Source: ChEMBL document CHEMBL5126551, “Spiral molecules with antimalarial activities: A review” (Eur J Med Chem, 2022)
pEC50, pIC50: −log10 of the molar value. ≈ marks a conversion by molar mass, not a printed value.

How the values were obtained:
Plasmodium falciparum [1] = assay: Antimalarial activity against Plasmodium falciparum Cam3.I^R539T assessed as inhibition of parasite growth measured after 6 hrs; type: functional
Plasmodium falciparum [2] = assay: Antimalarial activity against Plasmodium falciparum K1 assessed as inhibition of parasite growth; type: functional, organism-based
Plasmodium falciparum [3] = assay: Antimalarial activity against Plasmodium falciparum Cam3.I^R539T assessed as reduction in parasite survival at 700 nM measured after 6 hrs relative to control; type: functional
Plasmodium falciparum [4] = assay: Antimalarial activity against Plasmodium falciparum Cam3.I^R539T assessed as reduction in parasite survival at 49 nM measured after 6 hrs relative to control; type: functional
Plasmodium falciparum [5] = assay: Antimalarial activity against Plasmodium falciparum Cam3.I^R539T assessed as reduction in parasite survival at 175 nM measured after 6 hrs relative to control; type: functional
Plasmodium falciparum [6] = assay: Antimalarial activity against Plasmodium falciparum Cam3.I^R539T assessed as reduction in parasite survival at 88 nM measured after 6 hrs relative to control; type: functional
Plasmodium falciparum [7] = assay: Antimalarial activity against Plasmodium falciparum Cam3.I^R539T assessed as reduction in parasite survival at 350 nM measured after 6 hrs relative to control; type: functional
Plasmodium falciparum [8] = assay: Antimalarial activity against Plasmodium falciparum 1 assessed as inhibition of parasite growth; type: functional, organism-based
Plasmodium falciparum [9] = assay: Antimalarial activity against Plasmodium falciparum FCB assessed as inhibition of parasite growth; type: functional, organism-based
Plasmodium falciparum [10] = assay: Antimalarial activity against Plasmodium falciparum 3D7 assessed as inhibition of parasite growth; type: functional, organism-based
Plasmodium falciparum [11] = assay: Antimalarial activity against Plasmodium falciparum V1/S assessed as inhibition of parasite growth; type: functional, organism-based
Plasmodium falciparum [12] = assay: Antimalarial activity against Plasmodium falciparum 7G8 assessed as inhibition of parasite growth; type: functional, organism-based
Plasmodium falciparum [13] = assay: Antimalarial activity against Plasmodium falciparum D6 assessed as inhibition of parasite growth; type: functional, organism-based
Plasmodium falciparum [14] = assay: Antimalarial activity against Plasmodium falciparum HB3 assessed as inhibition of parasite growth; type: functional, organism-based
Plasmodium falciparum [15] = assay: Antimalarial activity against Plasmodium falciparum TM90C2B assessed as inhibition of parasite growth; type: functional, organism-based
Plasmodium falciparum [16] = assay: Antimalarial activity against Plasmodium falciparum Dd2 assessed as inhibition of parasite growth; type: functional, organism-based
Plasmodium falciparum [17] = assay: Antimalarial activity against multidrug-resistant early ring stage Plasmodium falciparum K14 infected in human erythrocytes assessed as inhibition of parasite growth incubated for 48 hrs by [3H]-hypoxanthine incorporation assay; type: functional, organism-based; conditions: K14, Erythrocyte
Plasmodium falciparum [18] = assay: Antimalarial activity against Plasmodium falciparum Dd2 infected in human erythrocytes assessed as reduction in parasite growth measured after 72 hrs by microscopic analysis; type: functional, organism-based; conditions: Dd2, Erythrocyte
Plasmodium falciparum [19] = assay: Antimalarial activity against Plasmodium falciparum 3D7 infected in human erythrocytes assessed as reduction in parasite growth measured after 72 hrs by microscopic analysis; type: functional, organism-based; conditions: 3D7, Erythrocyte
Plasmodium falciparum [20] = assay: Antimalarial activity against chloroquine resistant Plasmodium falciparum K1 assessed as inhibition of parasite growth incubated for 72 hrs by HRP2-based ELISA assay; type: functional, organism-based; conditions: K1, 72 h
Plasmodium falciparum [21] = assay: Antimalarial activity against chloroquine-sensitive Plasmodium falciparum NF54 infected in human red blood cells assessed as inhibition of parasite growth incubated for 72 hrs by [3H]-hypoxanthine incorporation assay based liquid scintillation counter method; type: functional, organism-based, Red blood cell; conditions: NF54, Erythrocyte
Plasmodium falciparum [22] = assay: Antimalarial activity against chloroquine and pyrimethamine resistant Plasmodium falciparum K1 infected in human red blood cells assessed as inhibition of parasite growth incubated for 72 hrs by [3H]-hypoxanthine incorporation assay based liquid scintillation counter method; type: functional, organism-based, Red blood cell; conditions: K1, Erythrocyte
Plasmodium falciparum [23] = assay: Antimalarial activity against chloroquine-sensitive Plasmodium falciparum 3D7 assessed as reduction in parasite growth incubated for 72 hrs by SYBR green I-based DNA quantification assay; type: functional, organism-based; conditions: 3D7, 72 h

C[C@H]1[C@@H](O)O[C@@H]2O[C@@]3(C)CC[C@H]4[C@H](C)CC[C@@H]1[C@@]24OO3 [ARTENIMOL]
IC90 (Plasmodium falciparum [1]): 2.7 ng/mL (≈ 9.5 nM)

COC(=O)C12C=C(OC)[C@]3(Cl)C(C)(C=C(C4=C[C@H](O)[C@@H]5O[C@]5(CC=C(C)C)[C@@H]4O)[C@]3(O)C13OC(=O)c1c(O)cc(C)cc1O3)C2 (stereo partly drawn)
pIC50 (Plasmodium falciparum [2]): 5.57

c1cc(C2CCC3(CC2)OOC2(O3)C3CC4CC(C3)CC2C4)ccc1OCCC1CCNCC1 (stereo not drawn)
Activity (Plasmodium falciparum [3]): 0% | Activity (Plasmodium falciparum [4]): 0.76% | Activity (Plasmodium falciparum [5]): 0% | Activity (Plasmodium falciparum [6]): 0% | Activity (Plasmodium falciparum [7]): 0%

CC1(C)CC(O)(Cc2ccc(C3CCC4(CC3)OOC3(O4)C4CC5CC(C4)CC3C5)cc2)CC(C)(C)N1 (stereo not drawn)
Activity (Plasmodium falciparum [3]): 0% | Activity (Plasmodium falciparum [4]): 1.29% | Activity (Plasmodium falciparum [5]): 0.12% | Activity (Plasmodium falciparum [6]): 0.17% | Activity (Plasmodium falciparum [7]): 0%

FC1CCN(CCOc2ccc(C3CCC4(CC3)OOC3(OO4)C4CCCC3CCC4)cc2)CC1 (stereo not drawn)
pIC50 (Plasmodium falciparum [8]): 8.38 | pIC50 (Plasmodium falciparum [9]): 7.85 | pIC50 (Plasmodium falciparum [10]): 8.29 | pIC50 (Plasmodium falciparum [11]): 8.38 | pIC50 (Plasmodium falciparum [12]): 8.54 | pIC50 (Plasmodium falciparum [13]): 8.07 | pIC50 (Plasmodium falciparum [14]): 8.38 | pIC50 (Plasmodium falciparum [15]): 8.14 | pIC50 (Plasmodium falciparum [16]): 8.11

O=C1C=Cc2cc(O)c(O)cc2C12C(=O)C=Cc1cc(O)c(O)cc12
pIC50 (Plasmodium falciparum [17]): 5.63

OCCCCCCC1COOC2(CCCCCCCCCCC2)OOC1
pEC50 (Plasmodium falciparum [18]): 6.05 | pEC50 (Plasmodium falciparum [19]): 6.48

COc1ccc(COCCC2NCCC23C(=O)Nc2ccccc23)cc1 (stereo not drawn)
pIC50 (Plasmodium falciparum [20]): 4.97

CCCCCCCCCCCCC[C@@H]1C[C@@H](O)C[C@]2(CCC3(C=CC(=O)C=C3)O2)O1 [ACULEATIN A]
pIC50 (Plasmodium falciparum [21]): 6.70 | pIC50 (Plasmodium falciparum [22]): 6.74

OC(CN1CCC2(CC1)CC(O)c1ccc3ccccc3c1O2)c1ccc(F)c(F)c1 (stereo not drawn)
pEC50 (Plasmodium falciparum [23]): 6.41
